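GI50 is the concentration that inhibits growth by half. TGI marks complete inhibition of growth.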
Key:
Test in all cases: growth of human tumour cells (NCI), 384-well format
[1] = test system: NCI-H23 lung
[2] = test system: SR leukemia
[3] = test system: UACC-257 melanoma
[4] = test system: LOX IMVI melanoma
[5] = test system: CCRF-CEM leukemia
[6] = test system: HT29 colon
[7] = test system: MALME-3M melanoma
[8] = test system: K-562 leukemia
[9] = test system: M14 melanoma
[10] = test system: OVCAR-8 ovarian
[11] = test system: HOP-62 NSCLC
[12] = test system: NCI/ADR-RES ovarian
[13] = test system: SNB-19 CNS

`C[C@H](NC(=O)c1c(C(F)F)nn(C)c1Oc1cccc(C(F)(F)F)c1)c1ccc(C(=O)O)cc1` was tested, and the GI50 [1] was greater than 100 µM, the TGI [1] was greater than 100 µM and the GI50 [2] was greater than 100 µM. It also gave a TGI [2] greater than 100 µM, a GI50 [3] greater than 100 µM and a TGI [3] greater than 100 µM. It also gave a GI50 [4] greater than 100 µM, a TGI [4] greater than 100 µM and a GI50 [5] greater than 100 µM. It also gave a TGI [5] greater than 100 µM, a GI50 [6] greater than 100 µM and a TGI [6] greater than 100 µM. For the same compound, the GI50 [7] was greater than 100 µM, the TGI [7] was greater than 100 µM and the GI50 [8] was greater than 100 µM. The TGI [8] was greater than 100 µM, the GI50 [9] was greater than 100 µM and the TGI [9] was greater than 100 µM. For the same compound, the GI50 [10] was greater than 100 µM, the TGI [10] was greater than 100 µM and the GI50 [11] was greater than 100 µM. For the same compound, the TGI [11] was greater than 100 µM, the GI50 [12] was greater than 100 µM and the TGI [12] was greater than 100 µM. It also gave a GI50 [13] greater than 100 µM and a TGI [13] greater than 100 µM.

Reference: PubChem BioAssay (NCI)
